Results as given in ChEMBL document CHEMBL5465560, “Selectivity Literature for EUbOPEN Chemogenomic Library” (2024).
Blank lines part the entries; values can stand above or below the compound they belong to.

Tests used:
[1] = target: Serine/threonine-protein kinase 35 (Homo sapiens) (UniProt Q8TDR2); details: at 10 µM
[2] = target: Casein kinase II subunit alpha' (Homo sapiens) (UniProt P19784); test: Selectivity interaction (KinomeScan (DiscoverX)) EUB0001049a CSNK2A2; details: at 1 µM
[3] = target: Fibroblast growth factor receptor 4 (Homo sapiens, UniProt P22455); test: Selectivity interaction (Ambit KINOMEscan and KiNATiv profiling in Jurkat cells) EUB0000090b FGFR4; format: cell-based; details: at 1 µM
[4] = target: ALK tyrosine kinase receptor (Homo sapiens, UniProt Q9UM73); test: (§1) Selectivity interaction (Ambit KINOMEscan and KiNATiv profiling in Jurkat cells) EUB0000090b ALK; format: cell-based; details: at 1 µM
[5] = system: ALK tyrosine kinase receptor (Homo sapiens), Q9UM73 [L1196M]; test: as §1; format: cell-based; details: at 1 µM
Sequence of ALK tyrosine kinase receptor (Homo sapiens), Q9UM73 [L1196M] (Q9UM73 whole entry L1196M, looked up): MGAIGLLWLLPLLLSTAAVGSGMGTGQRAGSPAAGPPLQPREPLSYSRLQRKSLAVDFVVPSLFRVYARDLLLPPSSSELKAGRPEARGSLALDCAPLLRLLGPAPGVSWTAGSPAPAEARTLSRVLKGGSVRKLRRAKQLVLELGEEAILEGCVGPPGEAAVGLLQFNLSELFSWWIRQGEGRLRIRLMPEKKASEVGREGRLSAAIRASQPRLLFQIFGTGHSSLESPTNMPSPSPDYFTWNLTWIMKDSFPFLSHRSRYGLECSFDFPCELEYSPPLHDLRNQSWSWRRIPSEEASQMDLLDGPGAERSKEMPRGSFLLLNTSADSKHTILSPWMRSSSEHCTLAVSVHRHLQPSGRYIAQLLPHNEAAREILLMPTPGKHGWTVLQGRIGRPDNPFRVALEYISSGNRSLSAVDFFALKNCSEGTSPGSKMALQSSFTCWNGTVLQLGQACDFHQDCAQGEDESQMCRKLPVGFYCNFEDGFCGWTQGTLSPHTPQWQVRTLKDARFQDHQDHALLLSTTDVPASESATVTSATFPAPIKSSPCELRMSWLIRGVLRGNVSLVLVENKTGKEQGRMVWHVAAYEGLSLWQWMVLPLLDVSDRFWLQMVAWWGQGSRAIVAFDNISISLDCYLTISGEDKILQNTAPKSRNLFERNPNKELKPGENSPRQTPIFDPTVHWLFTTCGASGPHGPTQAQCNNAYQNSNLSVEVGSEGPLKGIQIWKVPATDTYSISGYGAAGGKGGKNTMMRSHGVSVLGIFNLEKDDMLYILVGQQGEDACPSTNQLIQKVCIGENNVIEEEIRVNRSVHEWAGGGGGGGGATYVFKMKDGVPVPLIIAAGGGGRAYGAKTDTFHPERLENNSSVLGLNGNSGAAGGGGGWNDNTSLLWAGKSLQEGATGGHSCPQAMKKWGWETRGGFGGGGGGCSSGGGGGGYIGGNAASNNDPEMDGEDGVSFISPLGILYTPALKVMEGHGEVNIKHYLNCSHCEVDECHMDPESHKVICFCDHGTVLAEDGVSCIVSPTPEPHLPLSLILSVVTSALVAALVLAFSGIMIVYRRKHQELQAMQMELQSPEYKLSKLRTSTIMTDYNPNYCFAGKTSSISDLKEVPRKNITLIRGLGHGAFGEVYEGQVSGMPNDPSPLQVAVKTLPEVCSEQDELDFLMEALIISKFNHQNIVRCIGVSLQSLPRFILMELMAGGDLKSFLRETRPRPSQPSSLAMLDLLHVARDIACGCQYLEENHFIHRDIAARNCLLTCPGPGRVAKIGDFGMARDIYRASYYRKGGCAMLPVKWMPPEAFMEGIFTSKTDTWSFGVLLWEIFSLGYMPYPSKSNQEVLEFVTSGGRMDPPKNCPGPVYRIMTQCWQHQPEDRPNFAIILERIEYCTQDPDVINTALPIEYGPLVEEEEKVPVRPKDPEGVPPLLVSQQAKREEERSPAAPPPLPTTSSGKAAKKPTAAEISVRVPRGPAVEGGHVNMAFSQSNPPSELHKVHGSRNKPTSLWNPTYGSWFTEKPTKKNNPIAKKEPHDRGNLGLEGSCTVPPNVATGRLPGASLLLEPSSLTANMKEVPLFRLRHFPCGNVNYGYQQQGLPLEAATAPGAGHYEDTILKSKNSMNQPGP

[6] = system: ALK tyrosine kinase receptor (Homo sapiens), Q9UM73 [C1156Y]; test: as §1; format: cell-based; details: at 1 µM
Sequence of ALK tyrosine kinase receptor (Homo sapiens), Q9UM73 [C1156Y] (Q9UM73 whole entry C1156Y, looked up, the tested form may be a part): as the sequence (Q9UM73 whole entry L1196M, looked up) above, with C1156Y, M1196L counted along it

[7] = target: Bromodomain adjacent to zinc finger domain protein 2A (Homo sapiens, UniProt Q9UIF9); test: Selectivity interaction (Bromodomain panel (DSF asssay)) EUB0000270b BAZ2A
[8] = target: T1, Mitogen-activated protein kinase kinase kinase 19 (Homo sapiens) (UniProt Q56UN5); test: Selectivity interaction (KinomeScan (DiscoverX)) EUB0001550a MAP3K19; details: at 1 µM
T1 sequence (whole entry): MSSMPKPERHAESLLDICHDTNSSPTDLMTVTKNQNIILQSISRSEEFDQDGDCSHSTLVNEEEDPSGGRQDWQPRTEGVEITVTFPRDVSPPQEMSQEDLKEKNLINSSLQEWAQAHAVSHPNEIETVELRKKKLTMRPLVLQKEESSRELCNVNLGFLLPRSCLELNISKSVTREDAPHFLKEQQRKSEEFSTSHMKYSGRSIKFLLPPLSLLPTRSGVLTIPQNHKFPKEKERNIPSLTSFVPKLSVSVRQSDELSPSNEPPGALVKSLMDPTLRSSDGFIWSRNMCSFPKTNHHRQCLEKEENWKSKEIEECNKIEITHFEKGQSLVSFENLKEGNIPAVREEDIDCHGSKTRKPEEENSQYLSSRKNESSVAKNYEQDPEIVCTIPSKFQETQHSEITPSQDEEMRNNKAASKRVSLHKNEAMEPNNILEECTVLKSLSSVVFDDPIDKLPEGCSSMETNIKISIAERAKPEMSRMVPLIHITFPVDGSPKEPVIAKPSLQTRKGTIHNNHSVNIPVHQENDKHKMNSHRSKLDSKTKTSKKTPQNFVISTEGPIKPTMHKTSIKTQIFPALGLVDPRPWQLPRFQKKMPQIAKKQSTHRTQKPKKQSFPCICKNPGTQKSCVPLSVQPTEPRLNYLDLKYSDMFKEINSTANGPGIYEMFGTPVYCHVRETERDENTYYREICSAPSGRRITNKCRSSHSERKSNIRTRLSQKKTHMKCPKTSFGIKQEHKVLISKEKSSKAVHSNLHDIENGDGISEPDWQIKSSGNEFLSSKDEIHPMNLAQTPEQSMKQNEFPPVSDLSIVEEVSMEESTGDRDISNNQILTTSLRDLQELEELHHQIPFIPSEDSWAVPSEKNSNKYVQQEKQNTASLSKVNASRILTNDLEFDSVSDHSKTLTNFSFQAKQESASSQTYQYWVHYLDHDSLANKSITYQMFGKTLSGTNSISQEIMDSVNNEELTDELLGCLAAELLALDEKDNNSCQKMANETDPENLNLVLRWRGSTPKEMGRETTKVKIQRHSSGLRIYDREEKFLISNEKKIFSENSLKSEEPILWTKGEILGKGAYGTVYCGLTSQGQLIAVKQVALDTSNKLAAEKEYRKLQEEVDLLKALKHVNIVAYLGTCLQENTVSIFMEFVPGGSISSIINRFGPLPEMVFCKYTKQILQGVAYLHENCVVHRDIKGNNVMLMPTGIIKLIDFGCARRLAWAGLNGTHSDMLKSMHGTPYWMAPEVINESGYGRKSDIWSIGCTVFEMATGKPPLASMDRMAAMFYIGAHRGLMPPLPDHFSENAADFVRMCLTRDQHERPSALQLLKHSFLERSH

[9] = target: D(2) dopamine receptor (Homo sapiens, UniProt P14416); test: Selectivity interaction (Dopamine D2 receptor assay, human recombinant ) EUB0000877a DRD2
[10] = target: PAS domain-containing serine/threonine-protein kinase (Homo sapiens) (UniProt Q96RG2); test: Selectivity interaction (Kinase panel (Z-LYTE Assay)) EUB0001632a PASK; details: at 10 µM
Sequence of PAS domain-containing serine/threonine-protein kinase (Homo sapiens) (Q96RG2 whole entry, the tested form may be a part): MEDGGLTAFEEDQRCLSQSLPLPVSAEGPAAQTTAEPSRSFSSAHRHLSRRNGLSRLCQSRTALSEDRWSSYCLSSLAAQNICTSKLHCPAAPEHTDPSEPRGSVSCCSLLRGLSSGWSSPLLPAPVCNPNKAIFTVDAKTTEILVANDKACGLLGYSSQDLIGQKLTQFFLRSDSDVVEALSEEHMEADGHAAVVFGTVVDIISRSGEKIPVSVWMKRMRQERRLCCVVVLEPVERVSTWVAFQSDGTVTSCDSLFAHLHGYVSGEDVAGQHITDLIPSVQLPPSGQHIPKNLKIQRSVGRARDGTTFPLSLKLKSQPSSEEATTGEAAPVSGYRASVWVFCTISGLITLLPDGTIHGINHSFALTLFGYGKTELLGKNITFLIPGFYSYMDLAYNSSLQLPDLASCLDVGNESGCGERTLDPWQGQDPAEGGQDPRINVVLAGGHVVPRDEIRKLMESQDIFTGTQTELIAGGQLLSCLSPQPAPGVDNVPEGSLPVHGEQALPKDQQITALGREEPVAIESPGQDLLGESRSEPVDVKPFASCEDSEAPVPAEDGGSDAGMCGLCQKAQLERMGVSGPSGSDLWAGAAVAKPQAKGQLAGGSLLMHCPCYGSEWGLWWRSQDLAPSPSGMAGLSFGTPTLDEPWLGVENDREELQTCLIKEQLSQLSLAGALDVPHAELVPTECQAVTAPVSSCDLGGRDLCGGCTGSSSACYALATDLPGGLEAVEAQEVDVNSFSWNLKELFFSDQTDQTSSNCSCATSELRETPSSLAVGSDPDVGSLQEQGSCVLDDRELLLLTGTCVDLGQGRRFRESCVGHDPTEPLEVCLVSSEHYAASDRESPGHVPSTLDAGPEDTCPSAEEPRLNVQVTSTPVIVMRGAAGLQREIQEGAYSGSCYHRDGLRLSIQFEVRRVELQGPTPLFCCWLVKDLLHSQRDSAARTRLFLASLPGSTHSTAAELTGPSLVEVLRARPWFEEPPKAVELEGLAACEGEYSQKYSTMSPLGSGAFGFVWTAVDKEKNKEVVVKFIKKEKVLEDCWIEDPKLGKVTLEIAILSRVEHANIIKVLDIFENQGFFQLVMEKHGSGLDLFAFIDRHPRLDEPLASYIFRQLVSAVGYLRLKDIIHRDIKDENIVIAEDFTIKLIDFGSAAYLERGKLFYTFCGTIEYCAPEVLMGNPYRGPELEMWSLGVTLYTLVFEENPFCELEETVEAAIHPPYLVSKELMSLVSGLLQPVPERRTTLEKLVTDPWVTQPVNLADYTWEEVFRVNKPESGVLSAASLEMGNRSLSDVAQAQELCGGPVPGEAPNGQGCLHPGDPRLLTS

[11] = target: Ribosomal protein S6 kinase alpha-2 (Homo sapiens) (UniProt Q15349); test: Selectivity interaction (KinomeScan (DiscoverX)) EUB0000695a RPS6KA2; details: at 100 nM
Sequence of Ribosomal protein S6 kinase alpha-2 (Homo sapiens) (Q15349 whole entry): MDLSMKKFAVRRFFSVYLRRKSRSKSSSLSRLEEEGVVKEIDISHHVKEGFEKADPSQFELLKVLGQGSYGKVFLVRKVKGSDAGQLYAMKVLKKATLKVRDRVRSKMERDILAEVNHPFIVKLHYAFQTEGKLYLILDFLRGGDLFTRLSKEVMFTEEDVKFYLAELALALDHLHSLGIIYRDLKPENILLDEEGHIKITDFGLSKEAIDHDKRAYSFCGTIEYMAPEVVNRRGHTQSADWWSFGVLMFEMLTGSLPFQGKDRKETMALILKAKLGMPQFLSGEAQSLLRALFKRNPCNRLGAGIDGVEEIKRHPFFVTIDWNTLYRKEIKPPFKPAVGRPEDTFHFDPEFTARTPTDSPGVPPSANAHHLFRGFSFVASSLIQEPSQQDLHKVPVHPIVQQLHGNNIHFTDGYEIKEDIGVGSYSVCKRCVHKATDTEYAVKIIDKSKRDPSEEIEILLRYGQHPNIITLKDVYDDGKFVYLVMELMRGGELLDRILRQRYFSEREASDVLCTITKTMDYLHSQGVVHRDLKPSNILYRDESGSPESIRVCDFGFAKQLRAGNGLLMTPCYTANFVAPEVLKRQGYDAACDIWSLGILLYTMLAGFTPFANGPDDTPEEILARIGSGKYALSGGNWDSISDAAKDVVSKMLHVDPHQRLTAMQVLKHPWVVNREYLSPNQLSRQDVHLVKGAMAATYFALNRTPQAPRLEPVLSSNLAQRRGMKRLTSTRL

[12] = target: Microtubule-associated serine/threonine-protein kinase 1 (Homo sapiens) (UniProt Q9Y2H9); test: Selectivity interaction (KinomeScan (DiscoverX)) EUB0000229b MAST1; details: at 10 µM
[13] = target: Cyclin-G-associated kinase (Homo sapiens, UniProt O14976); test: Selectivity interaction (Competition-binding assay (DiscoverX)) EUB0000229b GAK
[14] = target: Cyclin-dependent kinase 7 (Homo sapiens, UniProt P50613); test: Selectivity interaction (KinomeScan (DiscoverX)) EUB0000229b CDK7; details: at 10 µM
[15] = target: SRSF protein kinase 1 (Homo sapiens, UniProt Q96SB4); test: Selectivity interaction (KinomeScan (DiscoverX)) EUB0001079a SRPK1; details: at 1 µM
Sequence of SRSF protein kinase 1 (Q96SB4 whole entry): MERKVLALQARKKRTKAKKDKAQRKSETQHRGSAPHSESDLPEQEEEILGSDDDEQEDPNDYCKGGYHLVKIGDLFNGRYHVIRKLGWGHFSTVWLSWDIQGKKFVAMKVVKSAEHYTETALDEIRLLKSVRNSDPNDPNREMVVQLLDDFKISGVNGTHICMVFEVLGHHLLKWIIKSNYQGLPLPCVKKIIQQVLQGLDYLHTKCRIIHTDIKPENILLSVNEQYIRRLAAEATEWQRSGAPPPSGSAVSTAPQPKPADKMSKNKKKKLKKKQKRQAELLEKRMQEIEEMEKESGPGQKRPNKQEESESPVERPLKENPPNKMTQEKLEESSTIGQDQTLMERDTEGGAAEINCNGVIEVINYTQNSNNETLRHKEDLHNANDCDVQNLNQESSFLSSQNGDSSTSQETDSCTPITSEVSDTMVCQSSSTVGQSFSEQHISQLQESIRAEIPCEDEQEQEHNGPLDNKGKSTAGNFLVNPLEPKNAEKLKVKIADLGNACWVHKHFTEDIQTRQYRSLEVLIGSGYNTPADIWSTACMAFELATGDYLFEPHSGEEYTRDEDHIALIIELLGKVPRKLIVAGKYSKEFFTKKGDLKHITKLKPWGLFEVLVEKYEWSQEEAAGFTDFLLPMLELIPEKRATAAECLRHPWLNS

[16] = target: Rho-associated protein kinase 1 (Homo sapiens) (UniProt Q13464); test: Selectivity interaction (ActivX KiNativ screen (ex vivo kinase selectivity in human PBMCs)) EUB0001619a ROCK1; format: cell-based; details: PBMC, at 1 µM
[17] = system: Epidermal growth factor receptor (Homo sapiens), P00533 [UNDEFINED MUTATION]; test: Selectivity interaction (KinomeScan (DiscoverX)) EUB0001619a EGFR; details: at 1 µM

Sequence of Serine/threonine-protein kinase 35 (Homo sapiens) (Q8TDR2 whole entry): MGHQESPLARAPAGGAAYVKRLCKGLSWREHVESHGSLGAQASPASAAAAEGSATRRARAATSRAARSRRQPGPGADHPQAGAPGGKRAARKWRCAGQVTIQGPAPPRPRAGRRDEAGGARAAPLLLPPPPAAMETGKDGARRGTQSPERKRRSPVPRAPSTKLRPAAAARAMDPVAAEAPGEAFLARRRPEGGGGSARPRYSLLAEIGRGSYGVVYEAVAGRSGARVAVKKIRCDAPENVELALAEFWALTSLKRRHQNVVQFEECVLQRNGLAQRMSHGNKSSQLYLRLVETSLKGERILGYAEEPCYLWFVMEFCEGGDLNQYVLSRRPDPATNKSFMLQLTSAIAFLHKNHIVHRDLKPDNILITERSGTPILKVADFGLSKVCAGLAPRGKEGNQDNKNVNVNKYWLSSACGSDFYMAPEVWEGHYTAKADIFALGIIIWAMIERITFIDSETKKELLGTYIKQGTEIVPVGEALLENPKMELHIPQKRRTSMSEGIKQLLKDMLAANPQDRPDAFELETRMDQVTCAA

Compound: Cc1cc([C@@H](C)Nc2ccccc2C(=O)O)c2nc(N3CCOCC3)cc(=O)n2c1 [AZD-6482]
% of control [1]: 95%

Compound: COc1cc(Nc2nc(C)cc(-c3cnn4nc(OC)ccc34)n2)cc(C(F)(F)F)c1
% of control [2]: 59%

Compound: CN(C)C/C=C/C(=O)Nc1ccc(C(=O)N2CCCC(Nc3ncc(Cl)c(-c4c[nH]c5ccccc45)n3)C2)cc1 (configuration not stated)
% of control [3]: 86%
% of control [4]: 86%
% of control [5]: 99%
% of control [6]: 100%

dTM [7]: -1.5 K
Compound: Cc1cc(CN)cc(C)c1-c1ncn(C)c1-c1cncn1C

% of control [8]: 9.9%
Compound: CN(C)CC#Cc1ccc2[nH]c3c(c2c1)-c1nc(N)ncc1CCC3

IC50 [9]: > 30 µM
Compound: CCC(=O)N1CC[C@H](Nc2ncnc3c2CN(c2cnc(OC)c(C(F)(F)F)c2)CC3)C1 [LENIOLISIB]

% of control [10]: 2.87%
Compound: Cn1cc(-n2cnc3c(NCc4nc5cc(Cl)c(Cl)cc5[nH]4)nc(N4CCOCC4)nc32)cn1

Compound: Cc1cc(F)c(C(=O)Nc2cccc(-c3nncn3C(C)C)n2)cc1-n1cnc(C2CC2)c1
% of control [11]: 73%

Compound: COc1cc(N(C)c2ccnc3ccc(C(F)(F)F)cc23)cc(OC)c1OC
% binding [12]: 85%
Kd [13]: 7.1 µM
% binding [14]: 57%

Compound: Nc1cnc(N2CCc3cc(S(=O)(=O)Nc4c(F)cc(Cl)cc4F)cc(N4CCCC4=O)c32)nc1 [TP-020n]
% of control [15]: 81%

Compound: N#Cc1cccc(-c2c[nH]c3ncnc(N4CCOCC4)c23)c1
% of inhibition [16]: 2%
% of control [17]: 83%
